From ChEMBL document CHEMBL1201862, “PubChem BioAssay data set” (2004)
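1) Cells in 96-well plates. 2) Compound, 48 h, 5 concentrations. 3) Linear interpolation between surrounding doses. 4) Unreached endpoint = highest concentration. GI50: concentration for 50% inhibition of growth.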 Activity calls are given as the source filed them. Cut-off read from the data, not from the text of the source: active = GI50 up to about 1.1 µM and inactive = higher.

What was measured:
Test in all cases: growth of human tumour cells (NCI), 48 h
[1] = tested on: TK-10
[2] = tested on: DU-145
[3] = tested on: NCI-H522
[4] = tested on: HOP-92
[5] = tested on: OVCAR-3
[6] = tested on: MOLT-4
[7] = tested on: SK-MEL-5
[8] = tested on: CAKI-1
[9] = tested on: BT-549
[10] = tested on: KM12
[11] = tested on: OVCAR-8
[12] = tested on: HL-60
[13] = tested on: UO-31
[14] = tested on: SNB-19
[15] = tested on: NCI-H226
[16] = tested on: CCRF-CEM
[17] = tested on: SF-539
[18] = tested on: SNB-75

Measured: GI50

CS(=O)(=O)Nc1ccc(N2Cc3c[nH]c4ccc5nccc2c5c34)cc1
inactive: [1] 23 µM | [2] 18.3 µM | [3] 10.3 µM | [4] 12.9 µM | [5] 9.98 µM | [6] 2.72 µM | [7] 14.7 µM | [8] 31.5 µM | [9] 21.8 µM | [10] 17.6 µM | [11] 13.7 µM | [12] 29 µM | [13] > 100 µM | [14] 13.1 µM | [15] 15.4 µM | [16] 7.33 µM

Cc1cc2ncc3c(=O)n(NS(=O)(=O)c4ccc(N)cc4)ccc3n2n1
inactive: [1] > 100 µM | [2] > 100 µM | [3] > 100 µM | [4] 54.2 µM | [5] > 100 µM | [6] > 100 µM | [17] > 100 µM | [7] > 100 µM | [8] > 100 µM | [9] > 100 µM | [10] > 100 µM | [11] > 100 µM | [18] > 100 µM | [12] > 100 µM | [13] > 100 µM | [14] > 100 µM | [15] > 100 µM | [16] > 100 µM

CCO[C@H]1C[C@@H](c2ccccc2)[C@]2(C)C[C@H](C(=O)OC)ON2O1
inactive: [1] > 100 µM | [2] > 100 µM | [3] > 100 µM | [4] > 100 µM | [5] > 100 µM | [6] > 100 µM | [17] > 100 µM | [7] > 100 µM | [8] > 100 µM | [9] > 100 µM | [10] > 100 µM | [11] > 100 µM | [12] > 100 µM | [13] > 100 µM | [14] > 100 µM | [15] > 100 µM | [16] > 100 µM

Cc1c(-c2ccc(O)c(O)c2)oc(=O)c2c(O)cccc12
inactive: [1] 12.2 µM | [2] 14.4 µM | [3] 2.95 µM | [4] 16.3 µM | [5] 11.6 µM | [6] 3.02 µM | [17] 12.5 µM | [7] 10.4 µM | [8] 7.35 µM | [9] 6.24 µM | [10] 10.1 µM | [11] 53.3 µM | [18] 13.3 µM | [12] 3.88 µM | [13] 11.1 µM | [14] 6.3 µM | [16] 3.08 µM

CC(C)(Oc1ccc(Cl)cc1)C(=O)N(C(=O)N1CCCCC1)c1ccccc1
inactive: [2] 14.7 µM | [5] 23.9 µM | [6] 3.41 µM | [17] 8.34 µM | [7] 10.4 µM | [8] 14.4 µM | [9] 15.4 µM | [10] 5.87 µM | [11] 14.1 µM | [12] 2.16 µM | [13] 10.8 µM | [14] 16.8 µM | [15] 17.6 µM | [16] 16.7 µM

NC1CC(=O)c2ccccc21 (centres undefined)
inactive: [1] > 100 µM | [2] > 100 µM | [3] > 100 µM | [4] > 100 µM | [5] > 100 µM | [6] > 100 µM | [17] > 100 µM | [7] > 100 µM | [8] > 100 µM | [9] > 100 µM | [10] > 100 µM | [11] > 100 µM | [18] > 100 µM | [13] > 100 µM | [14] > 100 µM | [15] > 100 µM | [16] > 100 µM
